Literature values in patent US6992047B2, “Method of microencapsulating an agricultural active having a high melting point and uses for such materials” (Monsanto Technology LLC, priority 2001, dated 2006).

Conditions: at 20° C.

SMILES: C=CCNC(=O)c1c([Si](C)(C)C)sc(C)c1C [silthiopham, 4,5-dimethyl-N-(2-propenyl)-2-(trimethylsilyl)-3-thiophenecarboxamide]
- water solubility: 35 ppm
